From ChEMBL document CHEMBL1125149, “Quinazoline antifolate thymidylate synthase inhibitors: benzoyl ring modifications in the C2-methyl series” (J Med Chem, 1990)

Legend:
[1] = molecular target: Thymidylate synthase (Mus musculus, UniProt P07607); test: Inhibition of partially purified thymidylate synthase (TS)
[2] = tested on: L1210; test: Growth inhibition of L1210 cells in culture.; type: functional, cell-based; conditions: Mus musculus
[3] = tested on: L1210; test: (§1) Percent control for L1210 cell growth in the presence of thymidine (in vitro); type: functional, Mus musculus; set-up: concentration or dose not given beside the values
[4] = tested on: L1210; test: as §1; type: functional, Mus musculus

Sequence of Thymidylate synthase (P07607 whole entry): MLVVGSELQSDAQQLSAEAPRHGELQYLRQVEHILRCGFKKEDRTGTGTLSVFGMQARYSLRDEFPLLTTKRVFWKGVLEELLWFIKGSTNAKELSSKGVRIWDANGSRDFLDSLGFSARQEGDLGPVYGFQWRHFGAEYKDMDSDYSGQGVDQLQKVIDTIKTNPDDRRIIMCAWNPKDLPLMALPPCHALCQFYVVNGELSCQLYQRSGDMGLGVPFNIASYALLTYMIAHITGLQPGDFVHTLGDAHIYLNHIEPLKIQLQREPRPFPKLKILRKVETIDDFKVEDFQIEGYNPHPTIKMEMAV

C#CCN(Cc1ccc2nc(C)[nH]c(=O)c2c1)c1ccc(C(=O)N[C@@H](CCC(=O)O)C(=O)O)c(Cl)c1
IC50 [1]: 74 nM | IC50 [2]: 250 nM

CCN(Cc1ccc2nc(C)[nH]c(=O)c2c1)c1ccc(C(=O)N[C@@H](CCC(=O)O)C(=O)O)cc1F
IC50 [1]: 680 nM | IC50 [2]: 86 nM | Control [3]: 96%

Cc1nc2ccc(CN(CCCO)c3ccc(C(=O)N[C@@H](CCC(=O)O)C(=O)O)c(F)c3)cc2c(=O)[nH]1
IC50 [1]: 590 nM | IC50 [2]: 30 nM | Control [3]: 95%

Cc1nc2ccc(CN(C)c3ccc(C(=O)N[C@@H](CCC(=O)O)C(=O)O)cc3F)cc2c(=O)[nH]1
IC50 [1]: 1140 nM | Control [4]: 92% | IC50 [2]: 140 nM

C#CCN(Cc1ccc2nc(C)[nH]c(=O)c2c1)c1ccc(C(=O)N[C@@H](CCC(=O)O)C(=O)O)c(N)c1
IC50 [1]: 290 nM | IC50 [2]: 360 nM

Cc1nc2ccc(CN(CC(N)=O)c3ccc(C(=O)N[C@@H](CCC(=O)O)C(=O)O)c(F)c3)cc2c(=O)[nH]1
IC50 [1]: 1340 nM | IC50 [2]: 800 nM

Cc1nc2ccc(CN(CCF)c3ccc(C(=O)N[C@@H](CCC(=O)O)C(=O)O)cc3F)cc2c(=O)[nH]1
IC50 [1]: 1750 nM | IC50 [2]: 69 nM

Cc1nc2ccc(CN(CCF)c3ccc(C(=O)N[C@@H](CCC(=O)O)C(=O)O)c(F)c3)cc2c(=O)[nH]1
IC50 [1]: 43 nM | IC50 [2]: 130 nM | Control [3]: 98%

C#CCN(Cc1ccc2nc(C)[nH]c(=O)c2c1)c1ccc(C(=O)N[C@@H](CCC(=O)O)C(=O)O)c(F)c1
Control [3]: 97%

Cc1nc2ccc(CN(CCO)c3ccc(C(=O)N[C@@H](CCC(=O)O)C(=O)O)cc3F)cc2c(=O)[nH]1
IC50 [1]: 3580 nM | IC50 [2]: 85 nM | Control [3]: 95%

CCN(Cc1ccc2nc(C)[nH]c(=O)c2c1)c1ccc(C(=O)N[C@@H](CCC(=O)O)C(=O)O)c(C)c1
IC50 [1]: 320 nM | IC50 [2]: 1200 nM | Control [3]: 94%

Cc1nc2ccc(CN(CCO)c3ccc(C(=O)N[C@@H](CCC(=O)O)C(=O)O)c(F)c3)cc2c(=O)[nH]1
IC50 [1]: 78 nM | IC50 [2]: 70 nM

Cc1nc2ccc(CNc3ccc(C(=O)N[C@@H](CCC(=O)O)C(=O)O)cc3F)cc2c(=O)[nH]1
IC50 [1]: 9340 nM | IC50 [2]: 120 nM | Control [3]: 86%

Cc1nc2ccc(CN(C)c3ccc(C(=O)N[C@@H](CCC(=O)O)C(=O)O)c(N)c3)cc2c(=O)[nH]1
IC50 [1]: 860 nM | IC50 [2]: 760 nM

CCN(Cc1ccc2nc(C)[nH]c(=O)c2c1)c1ccc(C(=O)N[C@@H](CCC(=O)O)C(=O)O)c(F)c1
IC50 [1]: 45 nM | IC50 [2]: 65 nM | Control [3]: 96%

C#CCN(Cc1ccc2nc(C)[nH]c(=O)c2c1)c1ccc(C(=O)N[C@@H](CCC(=O)O)C(=O)O)cc1F
IC50 [1]: 1430 nM | IC50 [2]: 52 nM | Control [3]: 102%

CCN(Cc1ccc2nc(C)[nH]c(=O)c2c1)c1ccc(C(=O)N[C@@H](CCC(=O)O)C(=O)O)c([N+](=O)[O-])c1
IC50 [1]: 145 nM | IC50 [2]: 1500 nM

Cc1nc2ccc(CN(CCCO)c3ccc(C(=O)N[C@@H](CCC(=O)O)C(=O)O)cc3F)cc2c(=O)[nH]1
IC50 [1]: 980 nM | IC50 [2]: 170 nM

C#CCN(Cc1ccc2nc(C)[nH]c(=O)c2c1)c1ccc(C(=O)N[C@@H](CCC(=O)O)C(=O)O)c(C)c1
IC50 [1]: 500 nM | IC50 [2]: 360 nM | Control [3]: 97%

C#CCN(Cc1ccc2nc(C)[nH]c(=O)c2c1)c1ccc(C(=O)N[C@@H](CCC(=O)O)C(=O)O)cc1
Control [3]: 100%

C#CCN(Cc1ccc2nc(C)[nH]c(=O)c2c1)c1ccc(C(=O)N[C@@H](CCC(=O)O)C(=O)O)c(O)c1
IC50 [1]: 90 nM | IC50 [2]: 500 nM | Control [3]: 77%

CCN(Cc1ccc2nc(C)[nH]c(=O)c2c1)c1ccc(C(=O)N[C@@H](CCC(=O)O)C(=O)O)c(Cl)c1
IC50 [1]: 120 nM | IC50 [2]: 870 nM

Cc1nc2ccc(CN(CC#N)c3ccc(C(=O)N[C@@H](CCC(=O)O)C(=O)O)c(F)c3)cc2c(=O)[nH]1
IC50 [1]: 170 nM | IC50 [2]: 34 nM | Control [3]: 90%

Cc1nc2ccc(CN(CCCO)c3ccc(C(=O)N[C@@H](CCC(=O)O)C(=O)O)cc3)cc2c(=O)[nH]1
Control [3]: 95%

C=CCN(Cc1ccc2nc(C)[nH]c(=O)c2c1)c1ccc(C(=O)N[C@@H](CCC(=O)O)C(=O)O)cc1
Control [3]: 104%

Cc1nc2ccc(CN(C)c3ccc(C(=O)N[C@@H](CCC(=O)O)C(=O)O)c(F)c3)cc2c(=O)[nH]1
IC50 [1]: 120 nM | IC50 [2]: 19 nM | Control [3]: 98%

C#CCN(Cc1ccc2nc(C)[nH]c(=O)c2c1)c1ccc(C(=O)N[C@@H](CCC(=O)O)C(=O)O)c(C(F)(F)F)c1
IC50 [1]: 480 nM | IC50 [2]: 1200 nM

Cc1nc2ccc(CN(C)c3ccc(C(=O)N[C@@H](CCC(=O)O)C(=O)O)c(C)c3)cc2c(=O)[nH]1
IC50 [1]: 940 nM | IC50 [2]: 800 nM

Cc1nc2ccc(CN(C)c3ccc(C(=O)N[C@@H](CCC(=O)O)C(=O)O)cc3)cc2c(=O)[nH]1
Control [3]: 100%

CCN(Cc1ccc2nc(C)[nH]c(=O)c2c1)c1ccc(C(=O)N[C@@H](CCC(=O)O)C(=O)O)c(OC)c1
IC50 [1]: 190 nM | IC50 [2]: 18000 nM

Cc1nc2ccc(CNc3ccc(C(=O)N[C@@H](CCC(=O)O)C(=O)O)c(F)c3)cc2c(=O)[nH]1
IC50 [1]: 3780 nM | IC50 [2]: 64 nM | Control [3]: 94%

CCN(Cc1ccc2nc(C)[nH]c(=O)c2c1)c1ccc(C(=O)N[C@@H](CCC(=O)O)C(=O)O)cc1
Control [3]: 88%

C=CCN(Cc1ccc2nc(C)[nH]c(=O)c2c1)c1ccc(C(=O)N[C@@H](CCC(=O)O)C(=O)O)c(F)c1
IC50 [1]: 76 nM | IC50 [2]: 100 nM | Control [3]: 97%

C=CCN(Cc1ccc2nc(C)[nH]c(=O)c2c1)c1ccc(C(=O)N[C@@H](CCC(=O)O)C(=O)O)cc1F
IC50 [1]: 5160 nM | IC50 [2]: 140 nM | Control [3]: 97%

CCN(Cc1ccc2nc(C)[nH]c(=O)c2c1)c1ccc(C(=O)N[C@@H](CCC(=O)O)C(=O)O)c(N)c1
IC50 [1]: 310 nM | IC50 [2]: 1300 nM

Cc1nc2ccc(CN(CCN)c3ccc(C(=O)N[C@@H](CCC(=O)O)C(=O)O)c(F)c3)cc2c(=O)[nH]1
IC50 [1]: 11700 nM | IC50 [2]: 2700 nM

C#CCN(Cc1ccc2nc(C)[nH]c(=O)c2c1)c1ccc(C(=O)N[C@@H](CCC(=O)O)C(=O)O)c([N+](=O)[O-])c1
IC50 [1]: 130 nM | IC50 [2]: 400 nM

C#CCN(Cc1ccc2nc(C)[nH]c(=O)c2c1)c1ccc(C(=O)N[C@@H](CCC(=O)O)C(=O)O)c(OC)c1
IC50 [1]: 67 nM | IC50 [2]: 3000 nM | Control [3]: 95%
